“Also recorded” adds a separate entry of the source. Where two headings read alike, the source gives them in different places. Where a SMILES comes first, the peptide text is derived from it.
How the values were obtained:
ExoU [1] = target: T1, ExoU (Pseudomonas aeruginosa, UniProt O34208); assay: ExoU in vitro phospholipase assay (real-time, dose-response); assay type: biochemical; settings: for Inhibition of ExoU phospholipase activity (in words): real-time phospholipase assay, Fig 2A, 2B, 2E
ExoU [2] = target: T1, ExoU; assay: BS3 cross-linking and SDS-PAGE of ExoU oligomerisation; settings: 10 µM inhibitor
Experimental: Four reaction mixtures (50 µL each) were prepared at room temperature: ExoU alone; ExoU with 5 µM PIP2; ExoU with 10 µM inhibitor; and ExoU with both 5 µM PIP2 and 10 µM inhibitor for 30 minutes at 25 °C. […] Reactions were quenched by addition of Tris HCl pH 7.4 to 50 mM and a further 15 min incubation at room temperature. […] Membranes were blocked in TBST containing 5% (w/v) non-fat milk for 1 h, then incubated overnight at 4 °C with mouse anti-His monoclonal antibody (Bio Rad; 1:2,000). After washing in TBST, membranes were incubated with HRP-conjugated goat anti-mouse IgG for 1 h at room temperature. Signal was detected by chemiluminescence with X ray film exposure, and band patterns were analysed to determine the distribution of monomeric and oligomeric ExoU species under each condition.

ExoU [3] = target: T1, ExoU; assay: nanoDSF thermal stability of ExoU; assay type: binding; settings: 10 µM compound; for ΔTm at 10 µM: read-out: Decrease of ExoU Tm
Experimental: Thermal stability of recombinant His₆-ExoU was assessed using a Prometheus NT.48 instrument (NanoTemper Technologies, Cambridge, UK) without extrinsic dyes, as these were not compatible with the use of PIP2. ExoU was diluted to 5 µM in 20 mM TrisHCl-HCl (pH 8.2), 100 mM NaCl, and 10% (v/v) glycerol. To evaluate ligand effects, four samples were prepared: ExoU alone, ExoU with 5 µM PIP2, ExoU with 10 µM inhibitor, and ExoU with both 5 µM PIP2 and 10 µM indicated inhibitor, each maintaining 1% (v/v) DMSO. Ten microliters of each mixture were loaded into highsensitivity-sensitivity nanoDSF glass capillaries and subjected to a thermal ramp from 25 °C to 95 °C at 1 °C/min. Intrinsic tryptophan fluorescence emission at 330 nm and 350 nm was recorded continuously, and the ratio F₃₅₀/F₃₃₀ was plotted against temperature. Melting temperatures (Tₘ) were determined from the inflection point of the first derivative of the fluorescence ratio using the manufacturer’s analysis software. All conditions were measured in triplicate. Changes in melting temperature (Δ Tₘ) compared to DMSO, or DMSO PIP2 controls were plotted using GraphPad.
Supplementary file ppat.1014474.s008.tif: S7 Fig Nano differential scanning fluorimetry (nanoDSF) analysis of ExoU thermal stability in the presence of compounds. Raw melt curves of recombinant ExoU are shown in the absence (left) and presence (right) of PIP2 (5 µM) from three independent (A-C) experiments. Compounds were tested at 10 µM. Intrinsic tryptophan fluorescence emission was continuously monitored at 330 nm and 350 nm as the temperature increased, and the fluorescence ratio (F₃₅₀/F₃₃₀) was plotted against temperature. Melting temperatures (Tₘ) were calculated from the average inflection point of the first derivative of the fluorescence ratio using the manufacturer’s analysis software. (TIF)

PLA2G4C = target: T2, PLA2G4C (Homo sapiens, UniProt Q9UP65); assay: Human phospholipase assay, thio-BGPC substrate; assay type: biochemical; settings: 10 µM, S4 Fig
T2 construct: 6xHis (N); made in house; host or cells: E. coli C43(DE3)
T2 sequence (Q9UP65 1-541): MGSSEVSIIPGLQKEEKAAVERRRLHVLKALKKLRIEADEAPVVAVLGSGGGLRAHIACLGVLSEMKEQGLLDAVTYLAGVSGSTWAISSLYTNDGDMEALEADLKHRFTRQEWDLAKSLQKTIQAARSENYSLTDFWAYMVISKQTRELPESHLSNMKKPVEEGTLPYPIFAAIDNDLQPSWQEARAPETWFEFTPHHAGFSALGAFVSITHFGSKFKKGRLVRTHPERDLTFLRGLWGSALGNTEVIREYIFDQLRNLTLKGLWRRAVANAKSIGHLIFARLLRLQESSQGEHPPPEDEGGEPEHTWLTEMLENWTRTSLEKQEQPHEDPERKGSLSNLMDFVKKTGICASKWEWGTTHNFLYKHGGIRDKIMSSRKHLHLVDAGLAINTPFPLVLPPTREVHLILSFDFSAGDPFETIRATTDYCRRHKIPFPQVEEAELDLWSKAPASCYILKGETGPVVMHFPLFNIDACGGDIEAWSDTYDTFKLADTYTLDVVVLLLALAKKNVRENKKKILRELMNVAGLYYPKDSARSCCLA
Experimental: Recombinant human PLA2G7 and PLA2G4C activities were measured in 96well, -well, UVtransparent microplates (Corning) in a final volume of 50 µL per well. Reactions were carried out in 20 mM […] TrisHCl-HCl (pH 8.2), 100 mM NaCl, and 0.01% Tween 20, with a 1% (v/v) final DMSO concentration. For PLA2G7, substrate cleavage was monitored using 0.6 mM 2-thio-PAF (Cambridge Bioscience Ltd), and for PLA2G4C, 0.6 mM arachidonoyl thio-bis-glycerophosphocholine (thioBGC-BGC; Cambridge Bioscience Ltd) was employed. In both assays, 1 mM DTNB (5,5′-dithiobis-(2nitrobenzoic acid), -nitrobenzoic acid), SigmaAldrich-Aldrich) served as the chromogenic reporter. Enzyme (500 nM final) was preequilibrated with buffer at 25 °C for 5 min before initiating-equilibrated with buffer at 25 °C for 5 min before initiating the reaction by substrate addition. Absorbance at 414 nm was recorded every minute for 1 h on a Hidex plate reader.
(B) ExoU activity was assessed using arachidonoyl thio-phosphatidylcholine (thio-PC) in the presence of 10 µM of the indicated compound. […] (TIF)

[4] = system: HCE-T cells infected with exoU⁺ clinical P. aeruginosa keratitis isolates; assay: CellDiscoverer 7 high-content screen, exoU+ isolates; assay type: cell-based, human; settings: 4.5 h post-infection; Bis 10 µM, Zp 2.5 µM, Pol 1 µM; DMSO ~43%
P. aeruginosa PA103 [5] = system: P. aeruginosa PA103; design: species or system porcine; settings: 48 hours
P. aeruginosa PA103 [6] = assay type: in vivo, Galleria mellonella
[7] = system: T3SS gene expression in P. aeruginosa PA103 and PAO1; assay: Quantitative RT-PCR of T3SS gene expression; assay type: cell-based, Pseudomonas aeruginosa; settings: Bis 10 µM, Zp 2.5 µM, Pol 1 µM in LB
human PLA2G7 = target: T3, human PLA2G7 (Homo sapiens, UniProt Q13093); assay: Human phospholipase assay, 2-thio-PAF substrate; assay type: biochemical; settings: 10 µM, S4 Fig
T3 construct: 6xHis (N); made in house; host or cells: E. coli C43(DE3)
T3 sequence (Q13093 22-441): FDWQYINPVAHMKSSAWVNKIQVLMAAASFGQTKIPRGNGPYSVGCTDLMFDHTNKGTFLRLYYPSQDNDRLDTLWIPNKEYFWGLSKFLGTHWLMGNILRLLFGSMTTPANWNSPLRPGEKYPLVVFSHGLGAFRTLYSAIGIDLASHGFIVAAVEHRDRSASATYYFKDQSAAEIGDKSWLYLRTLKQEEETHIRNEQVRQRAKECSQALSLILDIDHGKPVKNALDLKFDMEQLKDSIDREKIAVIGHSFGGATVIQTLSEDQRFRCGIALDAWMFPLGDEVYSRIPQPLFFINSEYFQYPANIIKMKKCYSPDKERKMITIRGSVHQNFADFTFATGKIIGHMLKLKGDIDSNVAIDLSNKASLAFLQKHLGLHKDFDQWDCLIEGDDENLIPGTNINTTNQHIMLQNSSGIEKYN

EGFP-tagged ExoU (S142A) = assay: EGFP-ExoU (S142A) abundance and lysosome colocalisation in transfected HEK293T cells
in vitro = settings: human, primary human corneal (limbal) epithelial cells
[8] = system: primary human corneal epithelial cells
P. aeruginosa PA103 [9] = settings: read-out: IC50 of bacterial growth
[10] = system: PA103-infected HCE-T cells; assay: LDH release assay in PA103-infected scratched HCE-T cells; assay type: cell-based, human; settings: 2.5 µM compound, PA103 MOI 10, 4 hours, S6 Fig
Description: Percentage lysis was normalized to the maximal LDH release from the kit positive control (CyQUANT; Thermo Fisher). (TIF)

[11] = Fig 1B dose-response, PIP2 and ubiquitin present, read-out: IC50 for ExoU inhibition in vitro
[12] = Fig 2C dose-response phospholipase assays, read-out: IC50 of bismuth-based ExoU inhibitors and subcitrate alone
[13] = Fig 3C, three-parameter fit, read-out: IC50 for ExoU inhibition, individual inhibitors or equimolar combinations

CC[C@H](C)CCCCC(=O)O [(S)-6-methyloctanoic acid]
Inhibition of ExoU phospholipase activity (in words) (ExoU [1]): failed to inhibit ExoU

O=C([O-])CC(O)(CC(=O)[O-])C(=O)[O-].O=C([O-])CC(O)(CC(=O)[O-])C(=O)[O-].[Bi+3].[K+].[K+].[K+] [Bis, bismuth subcitrate]
Migration of BS3 cross-linked ExoU on SDS-PAGE (ExoU [2]; with PIP2): single discrete high‐molecular‐weight band
Migration of BS3 cross-linked ExoU on SDS-PAGE (ExoU [2]; without PIP2): did not alter this profile
Decrease of ExoU Tm (ExoU [3]; absence of PIP2): no measurable effect
Decrease of ExoU Tm (ExoU [3]; with 5 µM PIP2): ~ 2 °C
IC50 (ExoU [1]; [11]): 12.8 ± 1 µM
IC50 (ExoU [1]; [12]): 9.9 µM
IC50 (ExoU [1]; [13]): 13.3 ± 2.9 µM
Inhibition of PLA2G4C (PLA2G4C): no inhibition
Mean live-cell area relative to non-infected controls [4]: 55.8%
Histology (H&E) of infected corneas (P. aeruginosa PA103 [5]): partial epithelial preservation and less stromal damage
Corneal opacity (P. aeruginosa PA103 [5]; Bis 5 µM, Zp 2.5 µM, Pol 1 µM topical): performing slightly better than Zp
Clinical score: mean±SD (health score 0-9) (P. aeruginosa PA103 [6]; PA103 1 × 10⁵ CFU, Bis 0.1 mg/g, Zp 0.01 mg/g, Pol 0.004 mg/g, 40 h): 4.17 ± 3.89
Median survival (P. aeruginosa PA103 [6]; PA103-infected larvae, PA103 alone 16): 16 h
Delay of disease progression (P. aeruginosa PA103 [6]; in a subset of larvae): approximately 8 h
Expression of exsA, pcrV, exoU in PA103, or exsA, pcrV, exoS in PAO1 [7]: no significant changes
Inhibition of PLA2G7 enzymatic activity (human PLA2G7): neither Bis, Pol, nor Zp inhibited enzymatic activity
Level of EGFP-tagged ExoU (S142A) by Western blot (EGFP-tagged ExoU (S142A); 5 µM, 16 h): substantially reduced
EGFP-ExoU (S142A) fluorescence and localisation (confocal) (EGFP-tagged ExoU (S142A); 16 h): marked reduction; also recorded: redistributed into punctate structures that co-localised with RFP-LAMP1
Pearson's correlation coefficient r, ExoU-lysosome (RFP-LAMP1) colocalisation (EGFP-tagged ExoU (S142A); 16 h compound treatment, DMSO r = 0.05): 0.49

[Cl][Bi]([Cl])[Cl] [Bismuth chloride, bismuth chloride]
IC50 (ExoU [1]; [12]): 9.2 µM

CC[C@H](C)CCCCC(=O)N[C@@H](CCN)C(=O)N[C@H](C(=O)N[C@@H](CCN)C(=O)N[C@H]1CCNC(=O)[C@H]([C@@H](C)O)NC(=O)[C@H](CCN)NC(=O)[C@H](CCN)NC(=O)[C@H](CC(C)C)NC(=O)[C@@H](Cc2ccccc2)NC(=O)[C@H](CCN)NC1=O)[C@@H](C)O [Pol, polymyxin B] (HELM PEPTIDE1{[CC[C@H](C)CCCCC(=O)[*:2]].[Dab].T.[Dab].[Dab].[Dab].[dF].L.[Dab].[Dab].T}$PEPTIDE1,PEPTIDE1,5:R3-11:R2$$$V2.0)
CC50 at 48 h (in vitro): 43 µM
LD50 (LDH release) [8]: 42.5 ± 10.6 µM
ΔTm at 10 µM (ExoU [3]; absence of PIP2): -3.8 °C
ΔTm at 10 µM (ExoU [3]; with 5 µM PIP2): -6.2 °C
IC50 (ExoU [1]; [11]): 13.1 ± 1.7 µM
IC50 (ExoU [1]; [13]): 11.6 ± 0.9 µM
IC50 (ExoU [1]; IC50 for ExoU inhibition, polymyxin B and poltide analogues, Fig 2E): 13 µM
IC50 (P. aeruginosa PA103 [9]; in DMEM/F-12 supplemented with 10% (v/v) FBS): 2.1 µM
IC50 (P. aeruginosa PA103 [9]; in LB): 0.75 µM

[H]/N=C(\N/C(=N/[H])NCCCCCCNC(=N)NC(=N)Nc1ccc(Cl)cc1)Nc1ccc(Cl)cc1 [chlorhexidine]
IC50 (ExoU [1]; [11]): 18.5 ± 3.3 µM

On1ccccc1=S.On1ccccc1=S.[Cu] [copper pyrithione]
Inhibition of ExoU phospholipase activity (in words) (ExoU [1]): Neither copper pyrithione, nor pyrithione inhibited ExoU

CC(=O)Oc1ccc(C(=C2CCCCC2)c2ccc(OC(C)=O)cc2)cc1 [cyclofenil]
IC50 (ExoU [1]; [11]): 20.2 ± 2.8 µM

CCN(CC)CCN(Cc1ccc(-c2ccc(C(F)(F)F)cc2)cc1)C(=O)Cn1c(SCc2ccc(F)cc2)nc(=O)c2c1CCC2 [darapladib]
ExoU activity with arachidonoyl thio-PC substrate (ExoU [1]; 10 µM compound, S4 Fig): did not inhibit ExoU activity

COc1cc2c(cc1OC)[C@@H](Cc1cc(OC)c(OC)c(OC)c1)[N+](C)(CCCOC(=O)CC/C=C/CCC(=O)OCCC[N+]1(C)CCc3cc(OC)c(OC)cc3[C@H]1Cc1cc(OC)c(OC)c(OC)c1)CC2 (stereo partly shown) [mivacurium chloride]
IC50 (ExoU [1]; [11]): 6 ± 1.8 µM

[O-][n+]1ccccc1S [pyrithione]
Inhibition of ExoU phospholipase activity (in words) (ExoU [1]): Neither copper pyrithione, nor pyrithione inhibited ExoU

O=S(=O)([O-])[O-].[Zn+2] [zinc sulphate]
Inhibition of ExoU phospholipase activity (in words) (ExoU [1]): inhibited ExoU phospholipase activity
Mean lysis (LDH release) [10]: 89%

lauric acid–Asp–Thr–Dab [Poltide 2]
IC50 for ExoU inhibition, polymyxin B and poltide analogues (ExoU [1]; Fig 2E): no effect on ExoU activity

subcitrate
IC50 of bismuth-based ExoU inhibitors and subcitrate alone (ExoU [1]; Fig 2C dose-response phospholipase assays): No inhibition
